Assay results reported in patent US9132140B2, “Boronic acid derivatives and therapeutic uses thereof” (Rempex Pharmaceuticals, Inc., priority 2013, dated 2015).
Like-named read-outs stand apart in the source and are kept apart here.

Key:
KPC-2 [1] = target: T1, KPC-2 (Klebsiella pneumoniae, UniProt Q9F663); assay: Inhibition of purified beta-lactamase, nitrocefin cleavage; assay type: biochemical; conditions: read-out: Ki (KPC-2, NCF)
Protocol: (§1) Purified enzymes were mixed with various concentrations of inhibitors in reaction buffer and incubated for 10 min at room temperature. Nitrocefin was added and substrate cleavage profiles were recorded at 490 nm every 10 sec for 10 min.

CMY-2 = CMY-2 (Klebsiella pneumoniae, UniProt Q48434); assay: as above; assay type: biochemical
CMY-2, sequence (Q48434 21-381, species assumed): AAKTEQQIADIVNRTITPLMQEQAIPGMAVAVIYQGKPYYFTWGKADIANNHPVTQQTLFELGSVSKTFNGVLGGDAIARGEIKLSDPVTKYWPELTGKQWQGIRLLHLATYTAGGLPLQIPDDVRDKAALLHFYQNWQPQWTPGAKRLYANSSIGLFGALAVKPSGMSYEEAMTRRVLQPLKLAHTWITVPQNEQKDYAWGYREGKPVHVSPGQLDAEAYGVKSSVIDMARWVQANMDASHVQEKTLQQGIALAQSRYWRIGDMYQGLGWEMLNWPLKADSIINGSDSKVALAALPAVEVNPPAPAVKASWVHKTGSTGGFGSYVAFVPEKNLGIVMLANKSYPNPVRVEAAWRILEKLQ
Protocol: as §1

CTX-M-14 = CTX-M-14 (Escherichia coli, UniProt Q9L5C7); assay: as above; assay type: biochemical
CTX-M-14, sequence (Q9L5C7 entry or part of it): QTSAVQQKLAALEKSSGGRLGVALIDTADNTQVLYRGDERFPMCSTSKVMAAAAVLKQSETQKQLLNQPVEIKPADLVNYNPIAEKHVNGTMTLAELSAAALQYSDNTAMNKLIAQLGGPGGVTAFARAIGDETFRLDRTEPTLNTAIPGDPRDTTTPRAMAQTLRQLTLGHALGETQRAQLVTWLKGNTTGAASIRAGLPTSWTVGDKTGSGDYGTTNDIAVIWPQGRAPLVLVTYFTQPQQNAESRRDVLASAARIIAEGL
Protocol: as §1

OXA-48 = OXA-48 (Klebsiella pneumoniae, UniProt Q6XEC0); assay: as above; assay type: biochemical; conditions: read-out: Ki (OXA-48, NCF)
OXA-48, sequence (Q6XEC0 23-265, looked up): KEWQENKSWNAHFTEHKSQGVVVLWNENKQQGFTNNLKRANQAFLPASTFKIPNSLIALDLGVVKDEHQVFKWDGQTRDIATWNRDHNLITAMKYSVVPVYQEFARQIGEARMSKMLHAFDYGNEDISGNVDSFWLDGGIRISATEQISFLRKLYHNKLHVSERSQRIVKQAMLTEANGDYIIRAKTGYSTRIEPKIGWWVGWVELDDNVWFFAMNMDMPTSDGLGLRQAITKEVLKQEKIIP
Protocol: as §1

SHV-12 = SHV-12 (Klebsiella pneumoniae, UniProt P0AD64, E235K/G234S/L31Q); assay: as above; assay type: biochemical; conditions: read-out: Ki (SHV-12, NCF)
SHV-12, sequence (P0AD64 22-286 L31Q/G234S/E235K): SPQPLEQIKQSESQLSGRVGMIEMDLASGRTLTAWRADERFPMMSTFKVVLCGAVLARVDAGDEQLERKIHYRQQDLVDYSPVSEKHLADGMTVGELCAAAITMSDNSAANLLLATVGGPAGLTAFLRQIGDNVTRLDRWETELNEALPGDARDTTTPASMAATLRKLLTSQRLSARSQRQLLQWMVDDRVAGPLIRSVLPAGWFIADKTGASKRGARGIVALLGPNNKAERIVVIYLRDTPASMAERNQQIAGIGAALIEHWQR
Protocol: as §1

P99/AmpC of ECL = P99/AmpC of ECL (Enterobacter cloacae, UniProt P05364); assay: biochemical; conditions: nitrocefin; read-out: Ki (P99/AmpC of ECL, NCF)
P99/AmpC of ECL, sequence (P05364 21-381): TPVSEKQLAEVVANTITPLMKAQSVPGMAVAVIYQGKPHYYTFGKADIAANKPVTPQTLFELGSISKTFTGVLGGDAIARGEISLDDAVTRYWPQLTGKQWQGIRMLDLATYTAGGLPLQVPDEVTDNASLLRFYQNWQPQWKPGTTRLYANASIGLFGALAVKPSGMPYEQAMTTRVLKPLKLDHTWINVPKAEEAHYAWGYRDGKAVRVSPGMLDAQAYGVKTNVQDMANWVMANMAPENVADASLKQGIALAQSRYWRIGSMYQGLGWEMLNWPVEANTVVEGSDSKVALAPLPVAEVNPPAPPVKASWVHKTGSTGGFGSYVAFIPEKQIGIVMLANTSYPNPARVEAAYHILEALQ
Protocol: as §1

KPC-2 [2] = target: T1, KPC-2; assay: Inhibition of purified class A carbapenemase, biapenem cleavage; assay type: biochemical; conditions: substrate biapenem 100 μM
NDM-1 = NDM-1 (Klebsiella pneumoniae, UniProt C7C422); assay: biochemical; conditions: substrate imipenem 100 μM
NDM-1, sequence (C7C422 29-270, looked up, species assumed): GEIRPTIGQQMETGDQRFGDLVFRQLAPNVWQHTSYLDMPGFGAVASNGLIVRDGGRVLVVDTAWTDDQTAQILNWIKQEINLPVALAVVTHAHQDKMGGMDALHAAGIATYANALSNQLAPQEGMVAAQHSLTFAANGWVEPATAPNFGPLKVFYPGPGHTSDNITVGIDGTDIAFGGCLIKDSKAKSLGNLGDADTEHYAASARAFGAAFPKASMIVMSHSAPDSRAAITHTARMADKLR

[3] = tested on: KP1081 (NDM-1, TEM-1, SHV-11, CMY-6, CTX-M-15); assay type: cell-based, Klebsiella pneumoniae; conditions: KP1081; alone
From the text: (§2) The results are present in Table 6.
(§3) The results are present in Table 7.

[4] = tested on: KP1087 (KPC-2, CTX-M-15, SHV-11, TEM-1); assay type: cell-based, Klebsiella pneumoniae; conditions: KP1087; alone
From the text: as §2, §3

[5] = nitrocefin, read-out: Ki (CMY-2, NCF)

T1 sequence (Q9F663 25-293, looked up, species assumed): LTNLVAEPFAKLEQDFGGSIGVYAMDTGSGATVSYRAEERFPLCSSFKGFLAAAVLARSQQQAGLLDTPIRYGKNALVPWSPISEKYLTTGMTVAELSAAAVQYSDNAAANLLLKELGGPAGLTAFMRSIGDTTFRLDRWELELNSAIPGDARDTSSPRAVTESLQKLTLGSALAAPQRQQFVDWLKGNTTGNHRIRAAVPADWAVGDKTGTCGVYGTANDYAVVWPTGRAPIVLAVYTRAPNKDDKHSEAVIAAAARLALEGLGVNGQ

SMILES | Ki (KPC-2 [1]) [nM] | Ki (CMY-2; [5]) [nM] | Ki (CTX-M-14) [nM] | Ki (OXA-48) [nM] | Ki (SHV-12) [nM] | Ki (P99/AmpC of ECL) [nM] | Ki (KPC-2 [2]) [nM] | Ki (NDM-1) [nM] | Ki (CTX-M-14; nitrocefin, read-out: Ki (CTX-M-14, NCF)) [nM] | Ki (CMY-2) [nM] | Carbapenem MIC alone [3] | Carbapenem MIC alone [4]
O=C(O)c1cccc2c1OB(O)[C@@H](Sc1c[nH]nn1)C2 [Compound 12, (R)-3-(1H-1,2,3-triazol-4-ylthio)-2-hydroxy-3,4-dihydro-2H-benzo[e][1,2]oxaborinine-8-carboxylic acid] | 100 to 1000 |  |  |  |  |  |  |  |  |  |  | 
CC(=O)Nc1nnc(S[C@H]2Cc3cccc(C(=O)O)c3OB2O)s1 [Compound 7, (R)-3-(5-acetamido-1,3,4-thiadiazol-2-ylthio)-2-hydroxy-3,4-dihydro-2H-benzo[e][1,2]oxaborinine-8-carboxylic acid] |  | < 100 | < 100 | < 100 | < 100 | < 100 |  |  |  |  |  | 
CSc1ccc2c(c1C(=O)O)OB(O)[C@@H](Sc1nncn1N)C2 [Compound 25, (R)-3-(4-amino-4H-1,2,4-triazol-3-ylthio)-2-hydroxy-7-(methylthio)-3,4-dihydro-2H-benzo[e][1,2]oxaborinine-8-carboxylic acid] | 100 to 1000 |  | < 100 | < 100 | < 100 | 100 to 1000 |  |  |  |  |  | 
O=C(O)c1cccc2c1OB(O)[C@@H](Sc1nccs1)C2 [Compound 11, (R)-2-hydroxy-3-(thiazol-2-ylthio)-3,4-dihydro-2H-benzo[e][1,2]oxaborinine-8-carboxylic acid] |  | < 100 |  | < 100 | < 100 | < 100 |  |  |  |  |  | 
NC(=O)CC1Cc2cccc(C(=O)O)c2OB1O (centres unmarked) [Compound 22, 3-(2-amino-2-oxoethyl)-2-hydroxy-3,4-dihydro-2H-benzo[e][1,2]oxaborinine-8-carboxylic acid] | < 100 | < 100 | < 100 | < 100 | < 100 | < 100 |  |  |  |  |  | 
O=C(O)c1cccc2c1OB(O)[C@@H](OC1CNC1)C2 [Compound 18, (R)-3-(azetidin-3-yloxy)-2-hydroxy-3,4-dihydro-2H-benzo[e][1,2]oxaborinine-8-carboxylic acid] | 100 to 1000 |  | 100 to 1000 | < 100 | < 100 | 100 to 1000 |  |  |  |  |  | 
CO[C@H]1Cc2cccc(C(=O)O)c2OB1O [Compound 17, (R)-2-hydroxy-3-methoxy-3,4-dihydro-2H-benzo[e][1,2]oxaborinine-8-carboxylic acid] | < 100 |  | < 100 | < 100 | < 100 | < 100 |  |  |  |  |  | 
Nn1cnnc1S[C@H]1Cc2ccc(F)c(C(=O)O)c2OB1O [Compound 20, (R)-3-(4-amino-4H-1,2,4-triazol-3-ylthio)-7-fluoro-2-hydroxy-3,4-dihydro-2H-benzo[e][1,2]oxaborinine-8-carboxylic acid] | 100 to 1000 |  | < 100 | 100 to 1000 | < 100 | 100 to 1000 |  |  |  |  |  | 
Cn1cnnc1S[C@H]1Cc2cccc(C(=O)O)c2OB1O [Compound 15, (R)-2-hydroxy-3-(4-methyl-4H-1,2,4-triazol-3-ylthio)-3,4-dihydro-2H-benzo[e][1,2]oxaborinine-8-carboxylic acid] | 100 to 1000 | < 100 | < 100 | < 100 | < 100 | < 100 | 10 to 100 | < 10 |  |  |  | 
CO[C@H]1Cc2ccc(F)c(C(=O)O)c2OB1O [Compound 19, (R)-7-fluoro-2-hydroxy-3-methoxy-3,4-dihydro-2H-benzo[e][1,2]oxaborinine-8-carboxylic acid] | < 100 |  | < 100 | < 100 | < 100 | < 100 |  | > 100 |  |  |  | 
NC(=O)CCS[C@H]1Cc2cccc(C(=O)O)c2OB1O [Compound 9, (R)-3-(3-amino-3-oxopropylthio)-2-hydroxy-3,4-dihydro-2H-benzo[e][1,2]oxaborinine-8-carboxylic acid] | < 100 | < 100 | < 100 | < 100 | 100 to 1000 | < 100 |  |  |  |  |  | 
CS[C@H]1Cc2cccc(C(=O)O)c2OB1O [Compound 16, (R)-2-hydroxy-3-(methylthio)-3,4-dihydro-2H-benzo[e][1,2]oxaborinine-8-carboxylic acid] | < 100 |  | < 100 | < 100 | 100 to 1000 | < 100 | 10 to 100 | > 100 |  |  |  | 
O=C(O)[C@H]1/C(=C/CO)O[C@@H]2CC(=O)N21 [Clavulanic acid, reference compound] | > 1000 | > 1000 |  | > 1000 |  |  |  |  | < 100 |  |  | 
NC(=O)CS[C@H]1Cc2cccc(C(=O)O)c2OB1O [Compound 3, (R)-3-(2-amino-2-oxoethylthio)-2-hydroxy-3,4-dihydro-2H-benzo[e][1,2]oxaborinine-8-carboxylic acid] | < 100 | < 100 | < 100 | < 100 | 100 to 1000 | < 100 | 10 to 100 |  |  |  |  | 
Cn1cnnc1S[C@H]1Cc2ccc(F)c(C(=O)O)c2OB1O [Compound 24, (R)-7-fluoro-2-hydroxy-3-(4-methyl-4H-1,2,4-triazol-3-ylthio)-3,4-dihydro-2H-benzo[e][1,2]oxaborinine-8-carboxylic acid] | 100 to 1000 |  | < 100 | < 100 | < 100 | 100 to 1000 |  |  |  |  |  | 
C[C@]1(Cn2ccnn2)[C@H](C(=O)O)N2C(=O)C[C@H]2S1(=O)=O [Tazobactam, reference compound] | > 1000 |  |  | 100 to 1000 |  |  |  |  |  | 100 to 1000 |  | 
C[C@@H](O)[C@H]1C(=O)N2C(C(=O)O)=C(S[C@@H]3CN[C@H](CNS(N)(=O)=O)C3)[C@H](C)[C@H]12 [Doripenem] |  |  |  |  |  |  |  |  |  |  | Z (MIC of greater than 10 μg/mL) | Z (MIC of greater than 10 μg/mL)
O=C(O)c1cccc2c1OB(O)[C@@H](Sc1nnc[nH]1)C2 [Compound 2, (R)-3-(4H-1,2,4-triazol-3-ylthio)-2-hydroxy-3,4-dihydro-2H-benzo[e][1,2]oxaborinine-8-carboxylic acid] | 100 to 1000 | 100 to 1000 | 100 to 1000 | < 100 | < 100 | 100 to 1000 | 10 to 100 |  |  |  |  | 
CC(=N)S[C@H]1Cc2cccc(C(=O)O)c2OB1O [Compound 10, (R)-2-hydroxy-3-(1-iminoethylthio)-3,4-dihydro-2H-benzo[e][1,2]oxaborinine-8-carboxylic acid] | 100 to 1000 |  |  |  |  |  |  |  |  |  |  | 
Nc1nnc(S[C@H]2Cc3cccc(C(=O)O)c3OB2O)s1 [Compound 4, (R)-3-(5-amino-1,3,4-thiadiazol-2-ylthio)-2-hydroxy-3,4-dihydro-2H-benzo[e][1,2]oxaborinine-8-carboxylic acid] |  | < 100 | < 100 | < 100 | < 100 | < 100 |  |  |  |  |  | 
C[C@@H](O)[C@H]1C(=O)N2C(C(=O)[O-])=C(SC3Cn4cnc[n+]4C3)[C@H](C)[C@H]12 (some centres unmarked) [Biapenem] |  |  |  |  |  |  |  |  |  |  | Z (MIC of greater than 10 μg/mL) | Z (MIC of greater than 10 μg/mL)
Nc1nnc(S[C@H]2Cc3ccc(F)c(C(=O)O)c3OB2O)s1 [Compound 23, (R)-3-(5-amino-1,3,4-thiadiazol-2-ylthio)-7-fluoro-2-hydroxy-3,4-dihydro-2H-benzo[e][1,2]oxaborinine-8-carboxylic acid] | < 100 |  | < 100 | < 100 | < 100 | < 100 |  |  |  |  |  | 
